Assay results taken from the NIST ThermoML archive (doi:10.1016/j.jct.2010.03.021).
“And” between values parts separate entries of the source, which are not always exact repeats. Equal entries are not always repeated.

What was measured:
[1] = Crystal, Calculated from knudsen effusion weight loss
[2] = molar enthalpy of vaporization or sublimation; details: Crystal

O=[N+]([O-])c1ccccc1-n1cccc1 [1-(2-nitrophenyl)pyrrole]
[1]
Details | vapor or sublimation pressure
306.11 K | 0.000106 kPa and 0.000108 kPa and 0.000109 kPa
308.2 K | 0.000141 kPa and 0.000138 kPa and 0.000139 kPa
310.18 K | 0.000181 kPa and 0.000173 kPa and 0.000174 kPa
312.12 K | 0.000226 kPa and 0.000227 kPa and 0.000228 kPa
314.19 K | 0.000291 kPa and 0.000284 kPa and 0.00029 kPa
316.18 K | 0.000368 kPa and 0.000355 kPa and 0.000358 kPa
318.11 K | 0.000464 kPa and 0.000466 kPa
320.18 K | 0.0006 kPa and 0.000587 kPa and 0.000594 kPa
322.18 K | 0.000764 kPa and 0.000733 kPa and 0.00074 kPa
324.12 K | 0.000955 kPa and 0.000965 kPa and 0.000963 kPa
326.2 K | 0.001224 kPa and 0.001209 kPa and 0.001238 kPa

[2], Clausius-Clapeyron Equation
Details | molar enthalpy [kcal/mol]
298.15 K | 24.21
316.16 K | 24

O=[N+]([O-])c1ccc(-n2cccc2)cc1 [1-(4-nitrophenyl)pyrrole]
[1]
Details | vapor or sublimation pressure
344.09 K | 9.59e-05 kPa and 9.52e-05 kPa and 9.41e-05 kPa
346.13 K | 0.000118 kPa and 0.000117 kPa
348.17 K | 0.000145 kPa and 0.000144 kPa
350.09 K | 0.000179 kPa and 0.000182 kPa and 0.000181 kPa
352.13 K | 0.000219 kPa and 0.00022 kPa and 0.000227 kPa
354.18 K | 0.00027 kPa and 0.000272 kPa and 0.000284 kPa
356.13 K | 0.000344 kPa and 0.000343 kPa and 0.00034 kPa
358.2 K | 0.00043 kPa and 0.000417 kPa and 0.000427 kPa
360.16 K | 0.000505 kPa and 0.000525 kPa
362.07 K | 0.000642 kPa and 0.000638 kPa and 0.000641 kPa
364.09 K | 0.000766 kPa and 0.000762 kPa and 0.000783 kPa
366.16 K | 0.000934 kPa and 0.000933 kPa

[2]
Details | molar enthalpy [kcal/mol]
298.15 K, Ebulliometric method (Recirculating still) | 26.86
355.13 K, Clausius-Clapeyron Equation | 26.2
